Earlier results in patent US9374973B2, “Grass endophytes” (GRASSLANZ TECHNOLOGY LTD, priority 2003, dated 2016).

Columns and labels:
[1] = system: grazing sheep, cattle, deer and horses
[2] = system: black beetle (Heteronychus arator); details: in vivo
[3] = system: Argentine stem weevil (Listronotus bonariensis); details: in vivo

CC(C)[C@H]1C(=O)N2CCC[C@H]2[C@]2(O)O[C@@](C)(NC(=O)[C@@H]3C=C4c5cccc6[nH]cc(c56)C[C@H]4N(C)C3)C(=O)N12 [Ergovaline]
Concentration in ryegrass pastures likely to elicit hyperthermia and depressed prolactin responses ([1]; bovine, in vivo): above 0.5 ppm
Effect on black beetle [2]: deterrent

CC(C)=C[C@H]1O[C@H]2[C@H]3O[C@@]34[C@H](CC[C@@]3(C)[C@@]4(O)CC[C@H]4Cc5c([nH]c6ccc7c(c56)C[C@@H]5[C@@H](C7=O)C(C)(C)OC5(C)C)[C@@]43C)O[C@@H]2C(C)(C)O1 [Lolitrem B]
Herbage concentration that may result in clinical symptoms of ryegrass staggers ([1]; grazing sheep, cattle, deer and horses): > 2 ppm of herbage dry matter

lolitrem
Effect on Argentine stem weevil [3]: toxic

Cn1c(CCCN=C(N)N)cn2cccc2c1=O [Peramine]
Effect on Argentine stem weevil [3]: feeding deterrent
